Measured values published in ChEMBL document CHEMBL1143152, “Calcitonin gene-related peptide (CGRP) receptor antagonists: investigations of a pyridinone template” (Bioorg Med Chem Lett, 2008).

How the values were obtained:
[1] = molecular target: T1, Calcitonin gene-related peptide type 1 receptor (Homo sapiens, UniProt O60894+Q16602); test: Antagonist activity at human recombinant CL receptor /RAMP1 assessed as inhibition of cAMP accumulation in presence of 50% human serum by cell based assay; assay type: functional
[2] = molecular target: T1, Calcitonin gene-related peptide type 1 receptor; test: Displacement of [125I]CGRP from human recombinant CL receptor /RAMP1
[3] = molecular target: T1, Calcitonin gene-related peptide type 1 receptor; test: Antagonist activity at human recombinant CL receptor /RAMP1 assessed as inhibition of cAMP accumulation by cell based assay; assay type: functional
[4] = Clearance in dog at 0.5 mg/kg, iv and 1.0 mg/kg, po; assay type: ADME, organism-based, Canis lupus familiaris; settings: in vivo
[5] = Bioavailability in dog at 1.0 mg/kg, po; assay type: ADME, organism-based, Canis lupus familiaris; settings: in vivo
[6] = Cmax in dog at 0.5 mg/kg, iv and 1.0 mg/kg, po; assay type: ADME, organism-based, Canis lupus familiaris; settings: in vivo
[7] = Half life in dog at 0.5 mg/kg, iv and 1.0 mg/kg, po; assay type: ADME, organism-based, Canis lupus familiaris; settings: in vivo
[8] = Bioavailability in rat at 10 mg/kg, po; assay type: ADME, organism-based; settings: in vivo
[9] = Cmax in rat at 2.0 mg/kg, iv and 10 mg/kg, po; assay type: ADME, organism-based; settings: in vivo
[10] = Half life in rat at 2.0 mg/kg, iv and 10 mg/kg, po; assay type: ADME, organism-based; settings: in vivo
[11] = Clearance in rat at 2.0 mg/kg, iv and 10 mg/kg, po; assay type: ADME, organism-based; settings: in vivo

T1 sequence (Q16602 whole entry, one chain of several): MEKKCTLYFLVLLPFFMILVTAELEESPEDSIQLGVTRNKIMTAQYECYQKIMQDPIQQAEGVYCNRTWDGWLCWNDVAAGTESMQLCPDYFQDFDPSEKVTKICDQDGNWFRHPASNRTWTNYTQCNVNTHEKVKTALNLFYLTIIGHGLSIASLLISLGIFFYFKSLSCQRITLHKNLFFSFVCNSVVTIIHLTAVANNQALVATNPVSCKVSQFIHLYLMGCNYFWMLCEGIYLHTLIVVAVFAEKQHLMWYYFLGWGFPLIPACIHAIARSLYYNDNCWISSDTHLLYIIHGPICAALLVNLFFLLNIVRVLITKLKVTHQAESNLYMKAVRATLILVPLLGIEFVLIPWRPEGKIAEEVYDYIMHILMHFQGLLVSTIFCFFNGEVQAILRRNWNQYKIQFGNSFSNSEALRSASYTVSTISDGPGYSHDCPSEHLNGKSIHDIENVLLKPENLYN

O=C(Nc1cc(-c2ccc(O)cc2)cn(CC(F)(F)F)c1=O)N1CCC(n2c(=O)[nH]c3ncccc32)CC1 showed an IC50 [1] of 0.971 µM, a Ki [2] of 0.096 µM and an IC50 [3] of 0.282 µM.
For O=C(Nc1cc(-c2cccnc2)cn(CC(F)(F)F)c1=O)N1CCC(n2c(=O)[nH]c3ncccc32)CC1, the clearance [4] was 0.3 mL/min/kg, the bioavailability [5] was 56% and the Ki [2] was 0.635 µM. The IC50 [3] was 0.651 µM, the Cmax [6] was 7.4 µM and the half-life [7] was 5.4 h.
For O=C(Nc1cc(-c2ccccc2)cn(CC(F)(F)F)c1=O)N1CCC(n2c(=O)[nH]c3ncccc32)CC1, the bioavailability [8] was 31%, the Cmax [9] was 5.3 µM and the clearance [4] was 0.2 mL/min/kg. It also gave a bioavailability [5] of 58%, a half-life [10] of 2.5 h and a Ki [2] of 0.095 µM. For the same molecule, the IC50 [3] was 0.209 µM, the clearance [11] was 2.3 mL/min/kg and the Cmax [6] was 10.3 µM. It also gave a half-life [7] of 3.7 h.
In the case of O=C(Nc1cc(-c2ccsc2)cn(CC(F)(F)F)c1=O)N1CCC(n2c(=O)[nH]c3ncccc32)CC1, the bioavailability [8] is reported as 44%, the Cmax [9] is reported as 5.1 µM and the half-life [10] is reported as 0.9 h. The Ki [2] was 0.105 µM, the IC50 [3] was 0.345 µM and the clearance [11] was 9.6 mL/min/kg.
COCCn1cc(-c2ccn[nH]2)cc(NC(=O)N2CCC(n3c(=O)[nH]c4ncccc43)CC2)c1=O gave an IC50 [1] of 0.394 µM, a Ki [2] of 0.14 µM and an IC50 [3] of 0.307 µM.
COCCn1cc(-c2cccnc2)cc(NC(=O)N2CCC(n3c(=O)[nH]c4ncccc43)CC2)c1=O gave a Ki [2] of 0.695 µM and an IC50 [3] of 1.19 µM.
For O=C(Nc1cc(-c2ccccc2)cn(CC2CC2)c1=O)N1CCC(n2cc(-c3ccccc3)[nH]c2=O)CC1, the Ki [2] was 0.08 µM and the IC50 [3] was 0.36 µM.
Molecule COc1ccc(-c2cc(NC(=O)N3CCC(n4c(=O)[nH]c5ncccc54)CC3)c(=O)n(C)c2)cc1 has a Ki [2] of 0.495 µM and an IC50 [3] of 1.53 µM.
Work on COCCn1cc(-c2ccsc2)cc(NC(=O)N2CCC(n3c(=O)[nH]c4ncccc43)CC2)c1=O yielded a bioavailability [8] of 1%, a Cmax [9] of 0.08 µM and a half-life [10] of 2.8 h. For the same molecule, the Ki [2] was 0.39 µM, the IC50 [3] was 0.54 µM and the clearance [11] was 23.5 mL/min/kg.
Work on O=C(Nc1cc(-c2cccc(F)c2)cn(CC(F)(F)F)c1=O)N1CCC(n2c(=O)[nH]c3ncccc32)CC1 yielded a Ki [2] of 0.042 µM and an IC50 [3] of 0.119 µM.
Work on Cn1cc(-c2ccc(C(=O)O)cc2)cc(NC(=O)N2CCC(n3c(=O)[nH]c4ncccc43)CC2)c1=O yielded a Ki [2] of 9 µM.
In the case of COCCn1cc(-c2cccc(F)c2F)cc(NC(=O)N2CCC(n3c(=O)[nH]c4ncccc43)CC2)c1=O, the IC50 [1] is reported as 1 µM, the Ki [2] is reported as 0.041 µM and the IC50 [3] is reported as 0.164 µM.
Molecule O=C(Nc1cc(-c2cccc(F)c2F)cn(CC(F)(F)F)c1=O)N1CCC(n2c(=O)[nH]c3ncccc32)CC1 has a bioavailability [8] of 34%, a Cmax [9] of 9.4 µM and a clearance [4] of 0.2 mL/min/kg. The IC50 [1] was 0.811 µM, the bioavailability [5] was 65% and the half-life [10] was 6.3 h. The Ki [2] was 0.017 µM, the IC50 [3] was 0.018 µM and the clearance [11] was 0.8 mL/min/kg. For the same molecule, the Cmax [6] was 9.4 µM and the half-life [7] was 3.3 h.
Cn1cc(-c2ccsc2)cc(NC(=O)N2CCC(n3c(=O)[nH]c4ncccc43)CC2)c1=O showed a bioavailability [8] of 47%, a Cmax [9] of 7.4 µM and a half-life [10] of 1 h. The Ki [2] was 0.075 µM, the IC50 [3] was 0.33 µM and the clearance [11] was 8.9 mL/min/kg.
Molecule Cn1cc(-c2ccccc2F)cc(NC(=O)N2CCC(n3c(=O)[nH]c4ncccc43)CC2)c1=O has a Ki [2] of 0.213 µM and an IC50 [3] of 0.477 µM.
With Cn1cc(C2C=CN=N2)cc(NC(=O)N2CCC(n3c(=O)[nH]c4ncccc43)CC2)c1=O (stereo not given) the clearance [4] was 2.8 mL/min/kg, the IC50 [1] was 0.872 µM and the bioavailability [5] was 6%. It also gave a Ki [2] of 0.071 µM, an IC50 [3] of 0.184 µM and a Cmax [6] of 0.3 µM. It also gave a half-life [7] of 1.2 h.
For Cn1cc(-c2ncccn2)cc(NC(=O)N2CCC(n3c(=O)[nH]c4ncccc43)CC2)c1=O, the Ki [2] was 1.9 µM.
Cn1cc(-c2ccccc2)cc(NC(=O)N2CCC(n3c(=O)[nH]c4ncccc43)CC2)c1=O gave a bioavailability [8] of 40%, a Cmax [9] of 20.3 µM and an IC50 [1] of 10.9 µM. It also gave a half-life [10] of 3 h, a Ki [2] of 0.498 µM and an IC50 [3] of 0.495 µM. For the same molecule, the clearance [11] was 1.3 mL/min/kg.
In the case of Cn1cc(-c2cccc(F)c2)cc(NC(=O)N2CCC(n3c(=O)[nH]c4ncccc43)CC2)c1=O, the Ki [2] is reported as 0.155 µM and the IC50 [3] is reported as 0.337 µM.
Cn1cc(-c2cccc(O)c2)cc(NC(=O)N2CCC(n3c(=O)[nH]c4ncccc43)CC2)c1=O showed an IC50 [1] of 0.715 µM, a Ki [2] of 0.042 µM and an IC50 [3] of 0.142 µM.
Work on Cn1cc(-c2ccc(O)cc2)cc(NC(=O)N2CCC(n3c(=O)[nH]c4ncccc43)CC2)c1=O yielded a bioavailability [8] of 2%, a Cmax [9] of 0.1 µM and a clearance [4] of 0.6 mL/min/kg. It also gave a bioavailability [5] of 3%, a half-life [10] of 1.1 h and a Ki [2] of 0.043 µM. It also gave an IC50 [3] of 0.088 µM, a clearance [11] of 16.1 mL/min/kg and a Cmax [6] of 0.6 µM. The half-life [7] was 2.9 h.
Molecule Cn1cc(-c2ccccc2O)cc(NC(=O)N2CCC(n3c(=O)[nH]c4ncccc43)CC2)c1=O has a Ki [2] of 0.22 µM and an IC50 [3] of 0.827 µM.
Molecule COCCn1cc(-c2ccc(O)cc2)cc(NC(=O)N2CCC(n3c(=O)[nH]c4ncccc43)CC2)c1=O has an IC50 [1] of 0.28 µM, a Ki [2] of 0.074 µM and an IC50 [3] of 0.17 µM.
COCCn1cc(-c2ccccc2)cc(NC(=O)N2CCC(n3c(=O)[nH]c4ncccc43)CC2)c1=O showed a bioavailability [8] of 37%, a Cmax [9] of 1.3 µM and a half-life [10] of 0.5 h. For the same molecule, the Ki [2] was 0.228 µM, the IC50 [3] was 0.665 µM and the clearance [11] was 25.3 mL/min/kg.
In the case of O=C(Nc1cc(-c2ccn[nH]2)cn(CC(F)(F)F)c1=O)N1CCC(n2c(=O)[nH]c3ncccc32)CC1, the IC50 [1] is reported as 1.42 µM, the Ki [2] is reported as 0.205 µM and the IC50 [3] is reported as 0.55 µM.
Molecule O=C(Nc1ccc(-c2ccccc2)n(CC2CC2)c1=O)N1CCC(n2cc(-c3ccccc3)[nH]c2=O)CC1 has a Ki [2] of 3.4 µM.
With Cn1cc(-c2cccnc2)cc(NC(=O)N2CCC(n3c(=O)[nH]c4ncccc43)CC2)c1=O the Ki [2] was 0.27 µM and the IC50 [3] was 1.07 µM.
In the case of O=C(Nc1cc(-c2ccccc2)cn(CC2CC2)c1=O)N1CCC(n2c(=O)[nH]c3ncccc32)CC1, the Ki [2] is reported as 0.17 µM and the IC50 [3] is reported as 0.302 µM.
For Cn1cc(-c2ccc(S(C)(=O)=O)cc2)cc(NC(=O)N2CCC(n3c(=O)[nH]c4ncccc43)CC2)c1=O, the Ki [2] was 1.75 µM.
In the case of Cn1cc(C2C=NC=N2)cc(NC(=O)N2CCC(n3c(=O)[nH]c4ncccc43)CC2)c1=O (stereo not given), the Ki [2] is reported as 2.05 µM.
Molecule O=C(Nc1cc(-c2ccccc2F)cn(CC(F)(F)F)c1=O)N1CCC(n2c(=O)[nH]c3ncccc32)CC1 has a Ki [2] of 0.054 µM and an IC50 [3] of 0.186 µM.
In the case of Cn1cc(-c2cccc(F)c2F)cc(NC(=O)N2CCC(n3c(=O)[nH]c4ncccc43)CC2)c1=O, the Ki [2] is reported as 0.166 µM and the IC50 [3] is reported as 0.567 µM.
